molecular target: Prothrombin (Homo sapiens, UniProt P00734); test: In vitro for the inhibition of thrombin

Compound	IC50
N=C(N)c1ccc(CNC(=O)[C@@H]2CCC=C2C(=O)NCC2CCCCC2)cc1	9.33 µM
N=C(N)c1ccc(CNC(=O)[C@@H]2CCC[C@H]2C(=O)NCc2ccccc2)cc1	44.7 µM
N=C(N)c1ccc(CNC(=O)[C@H]2CCC[C@@H]2C(=O)NCc2ccccc2)cc1	> 132 µM
COC(=O)[C@H](NC(=O)[C@@H]1CCC[C@H]1C(=O)NCc1ccc(C(=N)N)cc1)c1ccccc1	20.4 µM
N=C(N)c1ccc(CNC(=O)[C@@H]2CCC[C@H]2C(=O)N[C@@H](C(=O)O)c2ccccc2)cc1	> 132 µM

Now those with a lower IC50, led by results:

IC50	Compound
6.03 µM	N=C(N)c1ccc(CNC(=O)[C@@H]2CCC=C2C(=O)N2CCCCC2)cc1
1.51 µM	N=C(N)c1ccc(CNC(=O)[C@@H]2CCC=C2C(=O)NC2CCCCC2)cc1
1.32 µM	N=C(N)c1ccc(CNC(=O)[C@@H]2CCC[C@H]2C(=O)NC2CCCCC2)cc1
0.98 µM	CCN(C(=O)C1=CCC[C@H]1C(=O)NCc1ccc(C(=N)N)cc1)c1ccccc1
0.87 µM	CCON(C(=O)C1=CCC[C@H]1C(=O)NCc1ccc(C(=N)N)cc1)C1CCCCC1

Reference: ChEMBL document CHEMBL1132927, “New proline mimetics: synthesis of thrombin inhibitors incorporating cyclopentane- and cyclopentenedicarboxylic acid templates in the P2 position. Binding conformation investigated by X-ray crystallography” (J Med Chem, 2000)
